Assay results taken from patent US20090196829A1, “MRI CONTRAST AGENTS AND RELATED METHODS OF USE” (Northwestern University, priority 2008, published 2009).
Several values for one entry are separate records, joined by “and”; a condition that tells them apart may be missing. Equal entries are not always repeated.

What was measured:
[1] = at 64 MHz; cited from earlier work
[2] = T1 measurement and relaxivity of agents in solution, MR phantoms at 4.7T, 200 MHz; format: physicochemical; conditions: nanopure water, per Gd
Procedure: In experiments conducted during the course of development of the present invention, MR phantoms were imaged using a 4.7T, 200 MHz Bruker Biospec MR Imager with decreasing concentrations of 5, 6 and Gd-DOTA as indicated in FIG. 2A. T1 measurements were obtained and relaxivities were calculated for each compound using the T1 data. Relaxivities for 5, 6 and Gd-DOTA were calculated to be 5.3, 5.1, and 1.0 mM^−1 s^−1 at 200 MHz respectively. At high magnetic field strengths there remained a 5 fold increase in relaxivity per Gd(III) which indicated a 31-37 fold increase in molecular relaxivity.
6, 5 and DOTA-Gd were dissolved in nanopure water at decreasing concentrations and imaged in 1 mm capillary tubes. Concentrations (μM) were as follows from left to right for 6 (73.3, 54.9, 36.6, 22.0, 11.0, 0.0) for 5 (82.1, 61.6, 41.0, 24.6, 12.3, 0.0) and for DOTA-Gd (82.7, 62.0, 41.4, 24.8, 12.4, 0.0). T1 weighted (TR/TE=300/18.3 ms) spin-echo images were acquired at 200 MHz. […]
T1 values were determined using the following equation.
Where SI is the measured signal intensity for each TR, S0 is the signal intensity at infinity.
Relaxivities for each compound were calculated using the T1 data and gadolinium concentrations as determined by ICP-MS analysis. […]

[3] = test system: NIH-3T3 cells; assay: T1 measurement from T1 weighted cell pellet images of labeled cells; format: cell-based, mouse; conditions: NIH-3T3 cell pellets, 4 hours incubation
Procedure: In experiments conducted during the course of development of the present invention, 5 and 6 were used to label cells for MR imaging at equal molar concentrations of Gd(III) (FIG. 2B). […] NIH-3T3 cells were incubated for 4 hours at 37° C. and 5% CO2 in complete media containing 5, 6, and Gd-DOTA. The cells were rinsed 3 times in phosphate buffered saline and pelleted in 1 mm capillary tubes. Unlabeled cell pellets were used as a control. T1 values measured for 5, 6, Gd-DOTA and the control cell pellet were 2067.7, 2178.4, 3009.4, and 3480.3 msec respectively. […] Cell studies were done using NIH-3T3 cells cultured in Dulbecco's Modified Eagle's Media supplemented in 10% calf bovine serum and incubated at 37° C., 5% CO2. Cells were incubated with approximately equimolar concentrations of Gd for 4 hours in a 6 well plate. The cells were rinsed 2× with PBS and trypsinized. In 1.5 mL tubes, the cells were fixed for 15 min in 10% buffered neutral formalin and rinsed 2× in PBS. The cells were then pelleted in flame sealed 1 mm capillary tubes. T1 weighted (TR/TE=800/18.3 ms) spin-echo images were acquired at 200 MHz. T1 measurements were obtained by collecting a series of images using a standard spin-echo sequence with a TE of […] and a series of TR (91.5, 200, 300, 400, 500, 750, 1200, 2500, 5000, 10000), 6 signal averages, FOV 2×2 cm, collected into a matrix of 256×128.

| Relaxivity (linear regression of 1/T1 vs. Gd concentration) [2] | SMILES | relaxivity [1] | T1 ([3]; approximately equimolar Gd(III) (7.80, 8.95, 9.00 mM Gd), 200 MHz) | % difference from control (T1) ([3]; vs unlabeled control pellet) |
| --- | --- | --- | --- | --- |
|  | CNC[C@H](O)[C@@H](O)[C@H](O)[C@H](O)CO.O=C([O-])CN1CCN(CC(=O)[O-])CCN(CC(=O)O)CCN(CC(=O)[O-])CC1.[Gd+3] [Dotarem] | 3.4 mM⁻¹ s⁻¹ |  |  |
| 1.0 mM⁻¹ s⁻¹ | O=C([O-])CN1CCN(CC(=O)[O-])CCN(CC(=O)O)CCN(CC(=O)[O-])CC1.[Gd+3] [Gd-DOTA] |  | 3009.4 ms and 3009.44 ms | 13.53% |
